pIC50: −log10 of the molar value.
Biological target: EGFR WT (Homo sapiens (Human), UniProt P00533)
Test: ErbB enzyme assay (CisBio HTRF-KinEASE-TK), EGFR WT
Type: biochemical
Details: ATP at Km (25 μM), 1 h incubation
How it was run: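 Tyrosine kinase HTRF, 1 h RT reaction → quench (Sa-XL665/TK-Ab-Cryptate) → 1 h RT → 655/620 ratio.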

Chain of EGFR WT (P00533 25-1210): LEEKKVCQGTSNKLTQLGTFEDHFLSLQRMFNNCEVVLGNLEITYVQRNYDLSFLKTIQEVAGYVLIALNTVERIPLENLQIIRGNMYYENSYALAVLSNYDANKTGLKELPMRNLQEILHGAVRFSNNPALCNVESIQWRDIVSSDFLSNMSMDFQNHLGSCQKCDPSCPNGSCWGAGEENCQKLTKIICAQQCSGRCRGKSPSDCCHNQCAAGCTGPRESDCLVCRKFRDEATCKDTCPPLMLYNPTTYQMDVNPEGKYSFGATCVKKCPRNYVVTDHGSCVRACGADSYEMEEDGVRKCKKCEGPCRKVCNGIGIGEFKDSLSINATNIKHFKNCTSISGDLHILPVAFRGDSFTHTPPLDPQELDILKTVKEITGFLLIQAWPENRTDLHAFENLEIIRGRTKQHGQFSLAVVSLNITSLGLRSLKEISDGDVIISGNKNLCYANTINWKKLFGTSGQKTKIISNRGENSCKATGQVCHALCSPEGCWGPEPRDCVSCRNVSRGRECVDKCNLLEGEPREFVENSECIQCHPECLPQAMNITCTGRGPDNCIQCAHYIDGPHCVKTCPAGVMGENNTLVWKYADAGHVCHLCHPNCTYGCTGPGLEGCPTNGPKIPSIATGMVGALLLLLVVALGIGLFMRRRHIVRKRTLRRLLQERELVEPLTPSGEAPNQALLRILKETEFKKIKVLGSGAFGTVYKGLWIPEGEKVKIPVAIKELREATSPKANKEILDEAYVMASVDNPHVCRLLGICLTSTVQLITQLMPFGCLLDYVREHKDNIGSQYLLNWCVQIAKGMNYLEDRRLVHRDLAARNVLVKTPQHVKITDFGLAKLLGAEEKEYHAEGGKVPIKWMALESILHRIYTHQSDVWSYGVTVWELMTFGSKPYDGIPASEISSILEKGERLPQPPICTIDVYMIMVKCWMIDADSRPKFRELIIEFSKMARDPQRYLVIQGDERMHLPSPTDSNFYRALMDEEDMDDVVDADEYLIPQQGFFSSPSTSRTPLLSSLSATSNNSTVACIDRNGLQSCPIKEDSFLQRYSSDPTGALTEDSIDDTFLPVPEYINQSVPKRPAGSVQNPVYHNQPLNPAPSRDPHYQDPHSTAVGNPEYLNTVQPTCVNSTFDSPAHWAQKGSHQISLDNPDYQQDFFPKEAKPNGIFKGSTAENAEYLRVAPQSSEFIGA

Row | pIC50 | SMILES
1 | 6.30 to 7.00 | Cc1cc(Nc2ncnc3ccc(N4CC5CC(C4)N5C(=O)/C=C/C(F)F)nc23)ccc1Oc1ccc2c(c1)nnn2C [Compound 359, (E)-4,4-difluoro-1-(3-(4-((3-methyl-4-((1-methyl-1H-benzo[d][1,2,3]triazol-5-yl)oxy)phenyl)amino)pyrido[3,2-d]pyrimidin-6-yl)-3,6-diazabicyclo[3.1.1]heptan-6-yl)but-2-en-1-one]
2 | 6.30 to 7.00 | C=CC(=O)N1CCN(c2ncc3ncnc(Nc4ccc(Oc5cc(F)c6c(c5)ncn6C)c(C)c4)c3n2)CC[C@@H]1C [Compound 179, (S)-1-(4-(8-((4-((7-fluoro-1-methyl-1H-benzo[d]imidazol-5-yl)oxy)-3-methylphenyl)amino)pyrimido[5,4-d]pyrimidin-2-y1)-7-methyl-1,4-diazepan-1-yl)prop-2-en-1-one]
3 | 6.30 to 7.00 | C=CC(=O)N1C[C@@H](N(C)c2ccc3ncnc(Nc4ccc(Oc5ccc6c(c5)nnn6C)c(C)c4F)c3n2)CC[C@H]1C [Compound 352, 1-((2R,5S)-5-((4-((2-fluoro-3-methyl-4-((1-methyl-1H-benzo[d][1,2,3]triazol-5-yl)oxy)phenyl)amino)pyrido[3,2-d]pyrimidin-6-yl)(methyl)amino)-2-methylpiperidin-1-yl)prop-2-en-1-one]
4 | 6.30 to 7.00 | C=CC(=O)N1CC[C@@H](Oc2ncc3ncnc(Nc4ccc(Oc5cc(F)c6c(c5)ncn6C)c(C)c4)c3n2)C1 [Compound 385, (R)-1-(3-((8-((4-((7-fluoro-1-methyl-1H-benzo[d]imidazol-5-yl)oxy)-3-methylphenyl)amino)pyrimido[5,4-d]pyrimidin-2-yl)oxy)pyrrolidin-1-yl)prop-2-en-1-one]
5 | 7.00 to 7.30 | C=CC(=O)N1CCN(c2ccc3ncnc(Nc4cc(C)c(Oc5ccc6c(c5)nnn6C)c(F)c4)c3n2)C[C@H]1C [Compound 255, (R)-1-(4-(4-((3-fluoro-5-methyl-4-((1-methyl-1H-benzo[d][1,2,3]triazol-5-yl)oxy)phenyl)amino)pyrido[3,2-d]pyrimidin-6-yl)-2-methylpiperazin-1-yl)prop-2-en-1-one]
6 | 6.30 to 7.00 | C=CC(=O)N[C@H]1CN(c2ccc3ncnc(Nc4ccc(Oc5ccc6c(c5)nnn6C)c(C)c4)c3n2)C[C@@H]1F [Compound 276, N-((3S,4S)-4-fluoro-1-(4-((3-methyl-4-((1-methyl-1H-benzo[d][1,2,3]triazol-5-yl)oxy)phenyl)amino)pyrido[3,2-d]pyrimidin-6-yl)pyrrolidin-3-yl)acrylamide]
7 | 6.30 to 7.00 | C=CC(=O)N1CCN(c2ccc3ncnc(Nc4cc(C)c(Oc5ccc6c(c5)nnn6C)cc4OC(F)F)c3n2)CC1(C)C [Compound 305, 1-(4-(4-((2-(difluoromethoxy)-5-methyl-4-((1-methyl-1H-benzo[d][1,2,3]triazol-5-yl)oxy)phenyl)amino)pyrido[3,2-d]pyrimidin-6-yl)-2,2-dimethylpiperazin-1-yl)prop-2-en-1-one]
8 | > 7.30 | C=CC(=O)N1CCN(c2ccc3ncnc(Nc4ccc(Oc5ccc6c(c5)nnn6C)c(C)c4)c3n2)C[C@H]1CC#N [Compound 84, (R)-2-(1-acryloyl-4-(4-((3-methyl-4-((1-methyl-H-benzo[d][1,2,3]triazol-5-yl)oxy)phenyl)amino)pyrido[3,2-d]pyrimidin-6-yl)piperazin-2-yl)acetonitrile]
9 | 6.00 to 6.30 | C=CC(=O)N[C@@]1(C)CCCN(c2ncc3ncnc(Nc4ccc(Oc5ccc6c(c5)nnn6C)c(C)c4)c3n2)C1 [Compound 146, (S)-N-(3-methyl-1-(8-((3-methyl-4-((1-methyl-1H-benzo[d][1,2,3]triazol-5-yl)oxy)phenyl)amino)pyrimido[5,4-d]pyrimidin-2-yl)piperidin-3-yl)acrylamide]
10 | ≤ 6.00 | C=CC(=O)N1[C@@H](C)CN(c2ncc3ncnc(Nc4ccc(Oc5ccc6c(c5)nnn6C)c(C)c4)c3n2)C[C@@H]1C [Compound 184, 1-((2S,6S)-2,6-dimethyl-4-(8-((3-methyl-4-((1-methyl-1H-benzo[d][1,2,3]triazol-5-yl)oxy)phenyl)amino)pyrimido[5,4-d]pyrimidin-2-yl)piperazin-1-yl)prop-2-en-1-one]
11 | 6.30 to 7.00 | C=CC(=O)N1CCN(c2ccc3ncnc(Nc4cc(C)c(Oc5ccc6c(c5)nnn6C)cc4OC(F)F)c3n2)C[C@H]1C [Compound 302, (R)-1-(4-(4-((2-(difluoromethoxy)-5-methyl-4-((1-methyl-1H-benzo[d][1,2,3]triazol-5-yl)oxy)phenyl)amino)pyrido[3,2-d]pyrimidin-6-yl)-2-methylpiperazin-1-yl)prop-2-en-1-one]
12 | 6.30 to 7.00 | C=CC(=O)N1CCN(c2ncc3ncnc(Nc4cc(C)c(Oc5cc(F)c6c(c5)ncn6C)cc4OC)c3n2)C[C@H]1C [Compound 41, (R)-1-(4-(8-((4-((7-fluoro-1-methyl-1H-benzo[d]imidazol-5-yl)oxy)-2-methoxy-5-methylphenyl)amino)pyrimido[5,4-d]pyrimidin-2-y1)-2-methylpiperazin-1-y1)prop-2-en-1-one]
13 | > 7.30 | C=CC(=O)N1CC2CCC1CN2c1ccc2ncnc(Nc3ccc(Oc4ccc5c(c4)nnn5C)c(C)c3)c2n1 (stereo not shown) [Compound 82, 1-(5-(4-((3-methyl-4-((1-methyl-1H-benzo[d][1,2,3]triazol-5-yl)oxy)phenyl)amino)pyrido[3,2-d]pyrimidin-6-yl)-2,5-diazabicyclo[2.2.2]octan-2-yl)prop-2-en-1-one]
14 | ≤ 6.00 | C=CC(=O)N[C@H]1CN(c2ccc3ncnc(Nc4ccc(Oc5ccc6c(c5)nnn6C)c(C)c4F)c3n2)CC[C@H]1C [Compound 341, N-((3R,4R)-1-(4-((2-fluoro-3-methyl-4-((1-methyl-1H-benzo[d][1,2,3]triazol-5-yl)oxy)phenyl)amino)pyrido[3,2-d]pyrimidin-6-yl)-4-methylpiperidin-3-yl)acrylamide]
15 | ≤ 6.00 | Cc1cc(Nc2ncnc3cnc(N4CCN(C(=O)/C=C/Cn5cccn5)CC4)nc23)ccc1Oc1ccc2c(c1)nnn2C [Compound 233, (E)-1-(4-(8-((3-methyl-4-((1-methyl-1H-benzo[d][1,2,3]triazol-5-yl)oxy)phenyl)amino)pyrimido[5,4-d]pyrimidin-2-yl)piperazin-1-yl)-4-(1H-pyrazol-1-yl)but-2-en-1-one]
16 | 6.30 to 7.00 | C=CC(=O)N1CCN(c2ccc3ncnc(Nc4cc(C)c(Oc5cc(F)c6c(c5)ncn6C)cc4OC)c3n2)C[C@H]1C [Compound 310, (R)-1-(4-(4-((4-((7-fluoro-1-methyl-1H-benzo[d]imidazol-5-yl)oxy)-2-methoxy-5-methylphenyl)amino)pyrido[3,2-d]pyrimidin-6-yl)-2-methylpiperazin-1-yl)prop-2-en-1-one]
17 | > 7.30 | C=CC(=O)N1CCN(c2ccc3ncnc(Nc4ccc(Oc5cc6ncnn6cn5)c(C)c4)c3n2)CC1(C)C [Compound 328, 1-(4-(4-((4-([1,2,4]triazolo[1,5-c]pyrimidin-7-yloxy)-3-methylphenyl)amino)pyrido[3,2-d]pyrimidin-6-yl)-2,2-dimethylpiperazin-1-yl)prop-2-en-1-one]
18 | ≤ 6.00 | C=CC(=O)N1CCN(c2ncc3ncnc(Nc4ccc(Oc5ccc6c(c5)nnn6C)cc4Cl)c3n2)CC1 [Compound 29, 1-(4-(8-((2-chloro-4-((1-methyl-1H-benzo[d][1,2,3]triazol-5-yl)oxy)phenyl)amino)pyrimido[5,4-d]pyrimidin-2-yl)piperazin-1-yl)prop-2-en-1-one]
19 | 6.30 to 7.00 | C=CC(=O)N[C@H]1CCN(c2ccc3ncnc(Nc4ccc(Oc5ccc6c(c5)nnn6C)c(C)c4F)c3n2)C[C@@H]1F [Compound 280, N-((3S,4S)-3-fluoro-1-(4-((2-fluoro-3-methyl-4-((1-methyl-1H-benzo[d][1,2,3]triazol-5-yl)oxy)phenyl)amino)pyrido[3,2-d]pyrimidin-6-yl)piperidin-4-yl)acrylamide]
20 | > 7.30 | C=CC(=O)N1CCN(c2ccc3ncnc(Nc4ccc(Oc5ccc6c(c5)nnn6C)c(C)c4)c3n2)C2CC21 (stereo not shown) [Compound 75, 1-(5-(4-((3-methyl-4-((1-methyl-1H-benzo[d][1,2,3]triazol-5-yl)oxy)phenyl)amino)pyrido[3,2-d]pyrimidin-6-yl)-2,5-diazabicyclo[4.1.0]heptan-2-yl)prop-2-en-1-one]
21 | > 7.30 | C=CC(=O)N[C@@H]1CCCN(c2ncc3ncnc(Nc4ccc(Oc5cc(F)c6c(c5)nnn6C)c(C)c4F)c3n2)C1 [Compound 178, (R)-N-(1-(8-((2-fluoro-4-((7-fluoro-1-methyl-1H-benzo[d][1,2,3]triazol-5-yl)oxy)-3-methylphenyl)amino)pyrimido[5,4-d]pyrimidin-2-yl)piperidin-3-yl)acrylamide]
22 | 7.00 to 7.30 | Cc1cc(Nc2ncnc3ccc(N4CCN(C(=O)/C=C/C(F)F)[C@H](C)C4)nc23)ccc1Oc1ccc2c(c1)nnn2C [Compound 368, (R,E)-4,4-difluoro-1-(2-methyl-4-(4-((3-methyl-4-((1-methyl-1H-benzo[d][1,2,3]triazol-5-yl)oxy)phenyl)amino)pyrido[3,2-d]pyrimidin-6-yl)piperazin-1-yl)but-2-en-1-one]
23 | > 7.30 | C=CC(=O)N1CC(Oc2ncc3ncnc(Nc4ccc(Oc5ccc6c(c5)ncn6C)c(C)c4)c3n2)C1 [Compound 383, 1-(3-((8-((3-methyl-4-((1-methyl-1H-benzo[d]imidazol-5-yl)oxy)phenyl)amino)pyrimido[5,4-d]pyrimidin-2-yl)oxy)azetidin-1-yl)prop-2-en-1-one]
24 | > 7.30 | C=CC(=O)N1CCC(Oc2ncc3ncnc(Nc4ccc(Oc5cc(F)c6c(c5)ncn6C)c(C)c4)c3n2)CC1 [Compound 381, 1-(4-((8-((4-((7-fluoro-1-methyl-1H-benzo[d]imidazol-5-yl)oxy)-3-methylphenyl)amino)pyrimido[5,4-d]pyrimidin-2-yl)oxy)piperidin-1-yl)prop-2-en-1-one]
25 | ≤ 6.00 | C=CC(=O)N[C@@H]1CCCN(c2ccc3ncnc(Nc4cc(C)c(Oc5ccc6c(c5)nnn6C)cc4OC(F)F)c3n2)C1 [Compound 269, (R)-N-(1-(4-((2-(difluoromethoxy)-5-methyl-4-((1-methyl-1H-benzo[d][1,2,3]triazol-5-yl)oxy)phenyl)amino)pyrido[3,2-d]pyrimidin-6-yl)piperidin-3-yl)acrylamide]

From patent US20250129078A1, “ERBB2 INHIBITORS” (Cogent Biosciences, Inc., priority 2023, published 2025)
